Where “and” joins values, the source holds several entries; their conditions need not be identical. Equal entries are not always repeated.
Tests used:
TNBC cells [1] = assay: Combination index (CI) of binary therapy, Chou-Talalay method, CompuSyn software; format: cell-based, human
Description: (§1) The calculated CI values are based on 50 nM concentration for the PSs, 50 nM paclitaxel, 500 nM doxorubicin, 25 μM cisplatin, 25 μM fluorouracil, and 500 nM methotrexate.
(§2) Cells were grown to confluence in a 96-well plate (9×10^3 cells/well) and co-treated for 24 hours with synthesized photosensitizers (PSs) and chemotherapeutic agents of varying concentrations ranging from 5 nM to 50 μM) in growth media from a stock solution of 10 mM in DMSO (dimethyl sulfoxide, Fisher). After 24-hour treatment, old growth media containing the PSs or compounds were aspirated out and replaced with fresh media. Plates were then positioned below a non-coherent LumaCare LC-122 650 nm light source for 1 minute at an energy fluence rate of 0.96 J/cm^2 and a power of 16 mW/cm^2 (measured using a Newport optical power meter Model 840). Unirradiated cells served as control samples. The following day, cells were washed with pre-warmed PBS, and 11MTT (3-[4,5-dimethyl-thiazol-2-yl]-2.5-diphenyltetrazolium bromide, Sigma, 0.3 mg/mL) in PBS was added to each well. Samples were allowed to incubate for additional 2 hours, after which dark blue crystals formed. DMSO was added to each well and plates were shaken at room temperature for 1 hour to dissolve the purplish-blue formazan crystals. Absorbance values at 570 nm were measured on a microplate reader (BioRad 550). Cell survival was calculated based on the absorbance of the untreated cells alone (as control) and were directly proportional to the number of viable cells in culture. Results were reported as the mean±SD of triplicate measurements.
The combination index (CI) for the binary treatment of TNBC cells with a PS and a chemotherapeutic drug was calculated based on the Chou-Talalay method using CompuSyn software. […] The unified dynamics algorithm uses a minimum of dose-data points to fit the general MAL theory.
as §1

TNBC BT-549 cells = assay: Cell survival / cell inhibition (MTT cell cytotoxicity assay) after 24 h treatment with photosensitizer and/or chemotherapeutic agent, dark or light-irradiated; format: cell-based, human
Description: Human mammary epithelial carcinoma cell lines purchased from the American Type Culture Collection BT-549 (ATCC HTB-122) were cultured according to ATCC protocol. BT-549 cells were grown in RPMI 1640 containing 0.023 IU/mL insulin and supplemented with 10% fetal bovine serum (FBS). Cells were grown to 80-90% confluence in 75-cm^2 culture flasks (Corning) for 4-5 days in a humidified incubator (Fisher Scientific Isotemp) with 5% CO2 at 37° C. During the incubation period, growth media was changed once with fresh pre-warmed media (pH 7.2). To harvest the cells, old growth media was aspirated out, and 3 mL 0.25% trypsin solution (Thermo Sci Hyclone) were added. The cells were incubated for 5 minutes, and the cell pellet after centrifugation was resuspended in 3 mL media, broken up gently, then 1 mL of suspended cells was transferred into a new T75 cell culture flask containing pre-warmed media (20 mL) for further culturing.
as §2
The unmetallated PS and the indium complexes were used.
Light dose corresponds to an energy fluence rate of 0.96 J/cm^2 used.
Power of 16 mW/cm^2 used.
Cell inhibition in TNBC cells is based on the cell survival (MTT) assay of the binary therapy, blending the effect of PDT and chemotherapeutic agents. […] MePheo serves as a control compound. TNBC cells were then exposed to light after binary treatment for 24 hours.

human TNBC BT-549 cells = assay: Fluorescence microscopy (Hoechst 33258) of cell morphology / cell death pathway; format: cell-based
Description: Grayscale images of cells stained with Hoechst 33258. Morphology of (A) untreated unirradiated cells, sham control; (B) illuminated cells; (C-E) cells treated with: PSs (InCLA, CBTN, and CPA) and paclitaxel in the dark; (F-H) PSs, followed by 1 minute light exposure; (I) paclitaxel unirradiated; (J-L) PSs and paclitaxel in the dark; (M-O) PSs co-treated with paclitaxel, then light-exposed; (P-Q) PSs co-treated with doxorubicin, then irradiated; (R) PSs and cisplatin, dark; (S-T) PSs and cisplatin, irradiated; (U) fluorouracil, dark; (V) InCLA with fluorouracil in the dark; (W) light-exposed and, (X-Y) PSs with methotrexate with light. Inserts indicate enlarged view. […] Light dose in 1 minute=0.96 J cm^−2; in 30 seconds=0.48 J cm^−2. Concentrations: PSs=50 nM; paclitaxel=50 nM; doxorubicin=500 nM; cisplatin=25 μM; fluororuracil=25 μM; and, methotrexate=500 nM.
Cells (1 mL aliquots) obtained from a diluted cell suspension were seeded into each well (1.7 cm^2, 8×10^3 cells/well) of a 4-well culture slide (BD Biosciences) and grown to confluence in 5% CO2 at 37° C. for 3-4 days for attachment to the substratum. After aspirating the old growth media, 1 mL of the photosensitizer and chemotherapeutic agents (with appropriate concentrations) in fresh pre-warmed media at 37° C. was added to each well. After compound treatment for 24 hours, cells were washed twice with 1 mL fresh growth media, and then irradiated with light using LumaCare LC-122 as described above. Cells were stained in the dark with Hoechst 33258 (Molecular Probes) in pre-warmed media for 10 minutes at 37° C., washed twice with filtered PBS, then fixed with filtered paraformaldehyde for 15 minutes in the incubator. After thorough liquid aspiration, the wells were removed and allowed to air dry in the dark for 1 hour. Slides were protected with coverslips, whose edges were sealed using clear fast-drying nail polish and allowed to dry at room temperature in the dark for 30 minutes. Images were recorded using fluorescence microscopy (DAPI for Hoechst 350-390 nm excitation and 460-490 nm emission filters) using an upright fluorescence microscope with Retiga imaging 2000R (Nikon Optiphot-2, 20× and 40×) and an image processing Nikon NIS-Elements V4.0 Qimaging software.
To determine the preferred cell death pathway for the binary chemophotodynamic therapy, tracking the hallmarks of apoptosis or necrosis was accomplished using a nuclear stain to monitor chromatin condensation and cellular contraction. TNBC cells are spindle-shaped and nearly round with intact cytoplasm, diffused chromatin, distinct cellular membrane, and large oval nuclei staining dark blue with the nuclear stain (FIG. 18A-B).

TNBC cells [2] = assay: Combination index (CI) of binary therapy, Chou-Talalay method, CompuSyn software; format: cell-based, human; conditions: PS 50 nM + methotrexate 500 μM (footnote 500 nM)

Compound: C=Cc1c(C)c2cc3nc(c(CC(=O)OC)c4[nH]c(cc5nc(cc1[nH]2)C(C)=C5CC)c(C)c4C(=O)NCCCCCCNC(=O)CCNC(=O)[C@H](O)C(C)(C)CO)[C@@H](CCC(=O)OC)[C@@H]3C [CPA, chlorin pantothenic acid conjugate]
- combination index (CI) with cisplatin (TNBC cells [1]; PS 50 nM + cisplatin 25 μM): 1.30
- synergism vs additive vs antagonism effect with cisplatin (TNBC cells [1]; PS 50 nM + cisplatin 25 μM): (MA) (MA (1.20-1.45), moderate antagonism)
- combination index (CI) with doxorubicin (TNBC cells [1]; PS 50 nM + doxorubicin 500 nM): 1.52
- synergism vs additive vs antagonism effect with doxorubicin (TNBC cells [1]; PS 50 nM + doxorubicin 500 nM): (A) (A (1.45-3.3), antagonism)
- ranking of combination partners based on CI, decreasing order (TNBC cells [1]; PS 50 nM + drug): paclitaxel>fluorouracil>methotrexate
- combination index (CI) with fluorouracil (TNBC cells [1]; PS 50 nM + fluorouracil 25 μM): 0.45
- synergism vs additive vs antagonism effect with fluorouracil (TNBC cells [1]; PS 50 nM + fluorouracil 25 μM): (S) (S (0.3-0.7), synergism)
- combination index (CI) with paclitaxel (TNBC cells [1]; PS 50 nM + paclitaxel 50 nM): 0.41
- synergism vs additive vs antagonism effect with paclitaxel (TNBC cells [1]; PS 50 nM + paclitaxel 50 nM): (S) (S (0.3-0.7), synergism)
- cell viability, co-treatment with methotrexate upon light (TNBC BT-549 cells; PS 50 nM + methotrexate 500 nM, light, 1440 min): 66%
- cell survival, PS alone (TNBC BT-549 cells; PS 50 nM, light, 1440 min): 99%
- cell inhibition (%), combination with cisplatin (TNBC BT-549 cells; PS 100 nM + cisplatin 25 μM, 24 h, light 0.96 J cm−2): 87%
- effect of added cisplatin compared to cisplatin-treated cell viability (TNBC BT-549 cells; PS 100 nM + cisplatin 25 μM, light): reduced cell survival
- cell survival, co-treatment with cisplatin upon light (TNBC BT-549 cells; PS 100 nM + cisplatin 25 μM, light, 1440 min): 13%
- cell survival, co-treatment with doxorubicin in the dark (TNBC BT-549 cells; PS 100 nM + doxorubicin 500 nM, 24 h, dark): 75%
- cell inhibition (%), combination with doxorubicin (TNBC BT-549 cells; PS 100 nM + doxorubicin 500 nM, 24 h, light 0.96 J cm−2): 73%
- cell survival, co-treatment with doxorubicin upon light (TNBC BT-549 cells; PS 100 nM + doxorubicin 500 nM, light, 1440 min, 0.1 µM): 37% and 27%
- best combination partner (TNBC BT-549 cells; PS 100 nM + drug, light): cisplatin is the best, next doxorubicin, then paclitaxel
- cell inhibition (%), combination with fluorouracil (TNBC BT-549 cells; PS 100 nM + fluorouracil 25 μM, 24 h, light 0.96 J cm−2): 43%
- effect of added fluorouracil compared to fluorouracil-treated cell viability (TNBC BT-549 cells; PS 100 nM + fluorouracil 25 μM, light): reduced cell survival
- cell survival, co-treatment with fluorouracil upon light (TNBC BT-549 cells; PS 100 nM + fluorouracil 25 μM, light, 1440 min): 57%
- cell inhibition (%), combination with methotrexate (TNBC BT-549 cells; PS 100 nM + methotrexate 500 nM, 24 h, light 0.96 J cm−2): 33%
- cell inhibition (%), combination with paclitaxel (TNBC BT-549 cells; PS 100 nM + paclitaxel 50 nM, 24 h, light 0.96 J cm−2): 63%
- cell survival, co-treatment with paclitaxel upon light (TNBC BT-549 cells; PS 100 nM + paclitaxel 50 nM, light, 1440 min): 37%
- chemophotodynamic potency against TNBC cells, summary (TNBC BT-549 cells; PS 100 nM alone or in combination, light): better activity against TNBC cells than the starting compound MePheo
- cell survival, PS alone (TNBC BT-549 cells; PS 100 nM, light 0.96 J/cm^2, 1440 min, 0.1 µM): 75.3% and 75%
- cytotoxicity in the absence of light, PS alone (TNBC BT-549 cells; PS 500 nM, dark): No cytotoxicity
- combination therapy vs monotherapy (cisplatin) (TNBC BT-549 cells; PS + cisplatin, light): better photodynamic effect when co-treated with cisplatin than PS-treatment alone
- combination therapy vs monotherapy (doxorubicin) (TNBC BT-549 cells; PS + doxorubicin, light): better photodynamic effect when co-treated with doxorubicin than PS-treatment alone
- combination therapy vs monotherapy (fluorouracil) (TNBC BT-549 cells; PS + fluorouracil, light): better photodynamic effect when co-treated with fluorouracil than PS-treatment alone
- combination therapy vs monotherapy (methotrexate) (TNBC BT-549 cells; PS + methotrexate, light): best compared to monotherapy alone and with the other PSs used
- cell viability reduction (difference) vs PS alone (TNBC BT-549 cells; PS at lower concentration (CPA: 50 nM) + methotrexate 500 nM, light): 33%
- cell morphology, PS co-treated with paclitaxel (human TNBC BT-549 cells; PS 50 nM + paclitaxel 50 nM, light (FIG. 18M-O)): shrunk cells and chromatin fragmentation are evident
- cell morphology, PS-treated then light (human TNBC BT-549 cells; PS 50 nM, 24 h, light (FIG. 18F-H)): reduced cellular volume and nuclear density
- preferred mode of cell death (human TNBC BT-549 cells; PS co-treated with paclitaxel or cisplatin): apoptosis
- combination index (CI) with methotrexate (TNBC cells [2]): 0.50
- synergism vs additive vs antagonism effect with methotrexate (TNBC cells [2]): (S) (S (0.3-0.7), synergism)
